For test [1], the target named is SHP-2 enzyme (Met1-Leu525) (Homo sapiens (Human), UniProt Q06124). The test is described as follows: SHP2 inhibition enzymatic assay. The following applies: 0.5 nM SHP-2 activated by 500 nM IRS1 peptide, 75 μM DiFMUP substrate; read-out: SHP2wt-IC50. The class given is biochemical. The gist of the method:
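SHP-2 (Met1-Leu525), 0.5 nM, activated with 500 nM IRS1 bis-phosphopeptide, preincubated 30 min with compounds in HEPES pH 7.2 buffer with 5 mM DTT. 75 μM DiFMUP added for 30 min at room temperature, stopped with bpV; fluorescence read. IC50 from four-parameter logistic fit of % inhibition.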

For test [2], the system named is ERK phosphorylation in KYSE-520 cells. As to the kind of experiment: Phospho-ERK cellular assay. The following applies: Homo sapiens, KYSE-520, 2 h, KYSE-520 cells, 2 h at 37° C., phospho-ERK1/2 (Thr202/Tyr204) TR-FRET; read-out: PERK IC50. In kind it is cell-based. The gist of the method:
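TR-FRET read-out of ERK1/2 Thr202/Tyr204 phosphorylation was taken after overnight antibody incubation at room temperature. Before that, KYSE-520 cells were treated 2 h at 37 °C with compound dilutions and lysed 30 min. Percent inhibition relative to vehicle and cell-free wells was fitted four-parametrically to give IC50.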

Each structure is given as a SMILES string.

SHP-2 enzyme (Met1-Leu525), sequence (Q06124 1-525): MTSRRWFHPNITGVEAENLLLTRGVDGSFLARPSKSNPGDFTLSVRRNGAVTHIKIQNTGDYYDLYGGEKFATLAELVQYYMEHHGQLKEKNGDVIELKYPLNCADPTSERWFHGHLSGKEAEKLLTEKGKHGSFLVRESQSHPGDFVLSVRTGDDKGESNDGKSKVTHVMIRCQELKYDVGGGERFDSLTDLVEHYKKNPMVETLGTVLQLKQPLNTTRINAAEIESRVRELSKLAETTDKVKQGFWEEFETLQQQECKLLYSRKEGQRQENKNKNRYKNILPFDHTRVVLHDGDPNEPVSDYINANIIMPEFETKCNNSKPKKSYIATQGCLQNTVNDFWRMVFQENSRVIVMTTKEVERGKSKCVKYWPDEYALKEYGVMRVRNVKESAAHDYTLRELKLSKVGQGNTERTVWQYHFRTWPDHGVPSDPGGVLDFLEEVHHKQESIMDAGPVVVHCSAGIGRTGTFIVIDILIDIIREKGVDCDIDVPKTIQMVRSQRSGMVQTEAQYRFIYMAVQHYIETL

As to `NC[C@]1(c2ccccc2F)[C@@H]2CCN(c3cnc4c(-c5ccc6c(c5Cl)CC(=O)N6)n[nH]c4n3)C[C@@H]21` [Example 216, 5-(6-((1S,6R,7R)-7-(aminomethyl)-7-(2-fluorophenyl)-3-azabicyclo[4.1.0]heptan-3-yl)-1H-pyrazolo[3,4-b]pyrazin-3-yl)-4-chloroindolin-2-one], the values for the half-inhibitory concentration (IC50) in test [1] and in test [2] were less than 500 nM and less than 1000 nM, respectively.
For the molecule `CN1C(=O)Cc2cc(-c3n[nH]c4nc(N5CC[C@@H]6[C@H](C5)[C@@]6(CN)c5ccccc5F)cnc34)ccc21` [Example 217, 5-(6-((1S,6R,7R)-7-(aminomethyl)-7-(2-fluorophenyl)-3-azabicyclo[4.1.0]heptan-3-yl)-1H-pyrazolo[3,4-b]pyrazin-3-yl)-1-methylindolin-2-one], the IC50 in test [1] was less than 500 nM; in test [2], less than 1000 nM.
On the same counts, the results for `NC[C@]1(c2ccccc2F)[C@@H]2CCN(c3cnc4c(-c5ccc6c(c5)CNC6=O)n[nH]c4n3)C[C@@H]21` [Example 218, 5-(6-((1S,6R,7R)-7-(aminomethyl)-7-(2-fluorophenyl)-3-azabicyclo[4.1.0]heptan-3-yl)-1H-pyrazolo[3,4-b]pyrazin-3-yl)isoindolin-1-one] are less than 500 nM and less than 1000 nM.
As for `COc1ccc(-c2n[nH]c3nc(N4CC[C@@H]5[C@H](C4)[C@@]5(CN)c4ccccc4F)cnc23)c2ccncc12` [Example 219, ((1S,6R,7R)-7-(2-fluorophenyl)-3-(3-(8-methoxyisoquinolin-5-yl)-1H-pyrazolo[3,4-b]pyrazin-6-yl)-3-azabicyclo[4.1.0]heptan-7-yl)methanamine], the IC50 in test [1] was less than 500 nM; in test [2] it was less than 1000 nM.
Turning to `NC[C@]1(c2ccccc2F)[C@@H]2CCN(c3cnc4c(-c5ccc(C(N)=O)c6ncccc56)n[nH]c4n3)C[C@@H]21` [Example 220, 5-(6-((1S,6R,7R)-7-(aminomethyl)-7-(2-fluorophenyl)-3-azabicyclo[4.1.0]heptan-3-yl)-1H-pyrazolo[3,4-b]pyrazin-3-yl)quinoline-8-carboxamide], the IC50 in test [1] was less than 500 nM; in test [2], less than 1000 nM.
The corresponding values for `Cn1cc2c(Cl)c(-c3n[nH]c4nc(N5C[C@@H]6[C@H](C5)[C@@]6(CN)c5c(F)cccc5F)cnc34)ccc2n1` [Example 221, ((1R,5S,6s)-3-(3-(4-chloro-2-methyl-2H-indazol-5-yl)-1H-pyrazolo[3,4-b]pyrazin-6-yl)-6-(2,6-difluorophenyl)-3-azabicyclo[3.1.0]hexan-6-yl)methanamine] are less than 500 nM and less than 1000 nM.
Take `Cc1c(-c2n[nH]c3nc(N4CC[C@@H]5[C@H](C4)[C@@]5(CN)c4ccccc4F)cnc23)ccc2nccnc12` [Example 222, ((1S,6R,7R)-7-(2-fluorophenyl)-3-(3-(5-methylquinoxalin-6-yl)-1H-pyrazolo[3,4-b]pyrazin-6-yl)-3-azabicyclo[4.1.0]heptan-7-yl)methanamine]: the IC50 was less than 500 nM in test [1] and less than 1000 nM in test [2].
As for `COC(=O)c1ccc(-c2n[nH]c3nc(N4CC[C@@H]5[C@H](C4)[C@@]5(CN)c4ccccc4F)cnc23)c(Cl)c1` [Example 223, methyl 4-(6-((1S,6R,7R)-7-(aminomethyl)-7-(2-fluorophenyl)-3-azabicyclo[4.1.0]heptan-3-yl)-1H-pyrazolo[3,4-b]pyrazin-3-yl)-3-chlorobenzoate], the IC50 in test [1] is less than 500 nM; in test [2], less than 1000 nM.
On the same counts, the results for `NC[C@]1(c2ccccc2F)[C@@H]2CCN(c3cnc4c(-c5cnc6ccccn56)n[nH]c4n3)C[C@@H]21` [Example 224, ((1S,6R,7R)-7-(2-fluorophenyl)-3-(3-(imidazo[1,2-a]pyridin-3-yl)-1H-pyrazolo[3,4-b]pyrazin-6-yl)-3-azabicyclo[4.1.0]heptan-7-yl)methanamine] are less than 500 nM and less than 1000 nM.
Regarding `COc1c(F)cc(-c2n[nH]c3nc(N4CC[C@@H]5[C@H](C4)[C@@]5(CN)c4ccccc4F)cnc23)c2cccnc12` [Example 225, ((1S,6R,7R)-3-(3-(7-fluoro-8-methoxyquinolin-5-yl)-1H-pyrazolo[3,4-b]pyrazin-6-yl)-7-(2-fluorophenyl)-3-azabicyclo[4.1.0]heptan-7-yl)methanamine], the values for the IC50 in test [1] and in test [2] were less than 500 nM and less than 1000 nM, respectively.
As to `Cc1ccc2c(-c3n[nH]c4nc(N5CC[C@@H]6[C@H](C5)[C@@]6(CN)c5ccccc5F)cnc34)ccc(F)c2n1` [Example 226, ((1S,6R,7R)-3-(3-(8-fluoro-2-methylquinolin-5-yl)-1H-pyrazolo[3,4-b]pyrazin-6-yl)-7-(2-fluorophenyl)-3-azabicyclo[4.1.0]heptan-7-yl)methanamine], the values for the IC50 in test [1] and in test [2] were less than 500 nM and less than 1000 nM, respectively.
On the same counts, the results for `NC[C@]1(c2ccccc2F)[C@@H]2CCN(c3cnc4c(-c5ccc(C(=O)O)c(Cl)c5Cl)n[nH]c4n3)C[C@@H]21` [Example 227, 4-(6-((1S,6R,7R)-7-(aminomethyl)-7-(2-fluorophenyl)-3-azabicyclo[4.1.0]heptan-3-yl)-1H-pyrazolo[3,4-b]pyrazin-3-yl)-2,3-dichlorobenzoic acid] are less than 500 nM and greater than 5000 nM.
The corresponding values for `CN1C(=O)COc2ccc(-c3n[nH]c4nc(N5CC[C@@H]6[C@H](C5)[C@@]6(CN)c5ccccc5F)cnc34)c(Cl)c21` [Example 228, 6-(6-((1S,6R,7R)-7-(aminomethyl)-7-(2-fluorophenyl)-3-azabicyclo[4.1.0]heptan-3-yl)-1H-pyrazolo[3,4-b]pyrazin-3-yl)-5-chloro-4-methyl-2H-benzo[b][1,4]oxazin-3(4H)-one] are less than 500 nM and less than 1000 nM.
On the same counts, the results for `NC[C@]1(c2ccccc2F)[C@@H]2CCN(c3cnc4c(-c5ccc6nn(C7COC7)cc6c5Cl)n[nH]c4n3)C[C@@H]21` [Example 229, ((1S,6R,7R)-3-(3-(4-chloro-2-(oxetan-3-yl)-2H-indazol-5-yl)-1H-pyrazolo[3,4-b]pyrazin-6-yl)-7-(2-fluorophenyl)-3-azabicyclo[4.1.0]heptan-7-yl)methanamine] are less than 500 nM and less than 1000 nM.
`NC[C@]1(c2ccccc2F)[C@@H]2CCN(c3cnc4c(-c5ccc6c(c5)NC(=O)CC6)n[nH]c4n3)C[C@@H]21` [Example 230, 7-(6-((1S,6R,7R)-7-(aminomethyl)-7-(2-fluorophenyl)-3-azabicyclo[4.1.0]heptan-3-yl)-1H-pyrazolo[3,4-b]pyrazin-3-yl)-3,4-dihydroquinolin-2(1H)-one]: the figures for the IC50 in test [1] and in test [2] were less than 500 nM and less than 1000 nM, respectively.
`NC[C@]1(c2ccccc2F)[C@@H]2CCN(c3cnc4c(-c5ccc6ccc(=O)[nH]c6c5)n[nH]c4n3)C[C@@H]21` [Example 231, 7-(6-((1S,6R,7R)-7-(aminomethyl)-7-(2-fluorophenyl)-3-azabicyclo[4.1.0]heptan-3-yl)-1H-pyrazolo[3,4-b]pyrazin-3-yl)quinolin-2(1H)-one]: the results for the IC50 in test [1] and in test [2] were less than 500 nM and less than 1000 nM, respectively.

Values taken from patent publication US20240109900A1, “AZABICYCLIC SHP2 INHIBITORS” (IRBM S.P.A., priority 2021, published 2024).
